Assay: mn = molality of the nth substance listed, in mol/kg
Conditions: for surface tension liquid-gas: Ring tensiometer; for electrical conductivity: 100 kPa, Liquid, Alternating current cell with electrodes

CCCCCCCCCCCCCCCC[NH+](CCO)CC(C)O.[Cl-] (configuration not stated) + O
Conditions | electrical conductivity [S/m] | surface tension liquid-gas [mN/m]
293.15 K, m1 = 1.052e-05 | – | 59.82
293.15 K, m1 = 1.579e-05 | – | 56.69
293.15 K, m1 = 2.631e-05 | – | 52.01
293.15 K, m1 = 5.263e-05 | – | 45.56
293.15 K, m1 = 0.0001052 | – | 39.23
293.15 K, m1 = 0.0001263 | 0.000446 | –
293.15 K, m1 = 0.0001316 | 0.000471 | –
293.15 K, m1 = 0.0001368 | 0.000496 | –
293.15 K, m1 = 0.0001421 | 0.000522 | –
293.15 K, m1 = 0.0001473 | 0.000548 | –
293.15 K, m1 = 0.0001526 | 0.000573 | –
293.15 K, m1 = 0.0001579 | 0.000595 | 35.88
293.15 K, m1 = 0.000171 | 0.00061 | –
293.15 K, m1 = 0.0001842 | 0.000621 | –
293.15 K, m1 = 0.0001973 | 0.000633 | –
293.15 K, m1 = 0.0002105 | 0.000644 | 34.88
293.15 K, m1 = 0.0002236 | 0.000655 | –
293.15 K, m1 = 0.0002368 | 0.000667 | –
293.15 K, m1 = 0.00025 | 0.000678 | –
293.15 K, m1 = 0.0002631 | 0.000689 | 34.06
293.15 K, m1 = 0.0002763 | 0.000701 | –
293.15 K, m1 = 0.0002894 | 0.000712 | –
293.15 K, m1 = 0.0003026 | 0.000723 | –
293.15 K, m1 = 0.0003157 | 0.000737 | –
293.15 K, m1 = 0.0005262 | – | 32.43
293.15 K, m1 = 0.001053 | – | 31.43
293.15 K, m1 = 0.001579 | – | 31.07
298.15 K, m1 = 7.893e-06 | – | 56.32
298.15 K, m1 = 1.052e-05 | – | 54.11
298.15 K, m1 = 1.579e-05 | – | 50.72
298.15 K, m1 = 2.631e-05 | – | 46.33
298.15 K, m1 = 5.263e-05 | – | 40.82
298.15 K, m1 = 9.47e-05 | 0.000409 | –
298.15 K, m1 = 0.0001016 | 0.000433 | –
298.15 K, m1 = 0.0001052 | – | 35.11
298.15 K, m1 = 0.0001085 | 0.000458 | –
298.15 K, m1 = 0.0001154 | 0.000482 | –
298.15 K, m1 = 0.0001223 | 0.000507 | –
298.15 K, m1 = 0.0001293 | 0.000531 | –
298.15 K, m1 = 0.0001362 | 0.000556 | –
298.15 K, m1 = 0.0001431 | 0.000581 | –
298.15 K, m1 = 0.00015 | 0.000606 | 32.52
298.15 K, m1 = 0.0001618 | 0.000621 | –
298.15 K, m1 = 0.0001737 | 0.000637 | –
298.15 K, m1 = 0.0001855 | 0.000653 | –
298.15 K, m1 = 0.0001973 | 0.000669 | –
298.15 K, m1 = 0.0002092 | 0.000684 | –
298.15 K, m1 = 0.0002105 | – | 31.91
298.15 K, m1 = 0.000221 | 0.0007 | –
298.15 K, m1 = 0.0002329 | 0.000716 | –
298.15 K, m1 = 0.0002447 | 0.000732 | –
298.15 K, m1 = 0.0002565 | 0.000748 | –
298.15 K, m1 = 0.0002631 | – | 31.41
298.15 K, m1 = 0.0002684 | 0.000764 | –
298.15 K, m1 = 0.0002802 | 0.00078 | –
298.15 K, m1 = 0.0002921 | 0.000796 | –
298.15 K, m1 = 0.0003039 | 0.000811 | –
298.15 K, m1 = 0.0003157 | 0.000829 | –
298.15 K, m1 = 0.0005262 | – | 30.8
298.15 K, m1 = 0.001053 | – | 30.03
298.15 K, m1 = 0.001579 | – | 29.71
303.15 K, m1 = 6.578e-06 | – | 52.23
303.15 K, m1 = 7.893e-06 | – | 50.81
303.15 K, m1 = 1.052e-05 | – | 48.55
303.15 K, m1 = 1.579e-05 | – | 45.89
303.15 K, m1 = 2.631e-05 | – | 42.23
303.15 K, m1 = 5.263e-05 | – | 37.06
303.15 K, m1 = 9.47e-05 | 0.000467 | –
303.15 K, m1 = 9.9e-05 | 0.000486 | –
303.15 K, m1 = 0.0001033 | 0.000505 | –
303.15 K, m1 = 0.0001052 | – | 32.07
303.15 K, m1 = 0.0001075 | 0.000524 | –
303.15 K, m1 = 0.0001118 | 0.000544 | –
303.15 K, m1 = 0.0001161 | 0.000563 | –
303.15 K, m1 = 0.0001204 | 0.000582 | –
303.15 K, m1 = 0.0001247 | 0.000601 | –
303.15 K, m1 = 0.0001289 | 0.000621 | –
303.15 K, m1 = 0.0001315 | – | 31.01
303.15 K, m1 = 0.0001423 | 0.000643 | –
303.15 K, m1 = 0.0001556 | 0.000666 | –
303.15 K, m1 = 0.0001579 | – | 30.51
303.15 K, m1 = 0.000169 | 0.000689 | –
303.15 K, m1 = 0.0001823 | 0.000712 | –
303.15 K, m1 = 0.0001956 | 0.000735 | –
303.15 K, m1 = 0.000209 | 0.000757 | –
303.15 K, m1 = 0.0002105 | – | 30.45
303.15 K, m1 = 0.0002223 | 0.00078 | –
303.15 K, m1 = 0.0002357 | 0.000803 | –
303.15 K, m1 = 0.000249 | 0.000826 | –
303.15 K, m1 = 0.0002624 | 0.000849 | –
303.15 K, m1 = 0.0002631 | – | 30.43
303.15 K, m1 = 0.0002757 | 0.000872 | –
303.15 K, m1 = 0.0002891 | 0.000895 | –
303.15 K, m1 = 0.0003024 | 0.000918 | –
303.15 K, m1 = 0.0003157 | 0.000944 | –
303.15 K, m1 = 0.0005262 | – | 29.89
303.15 K, m1 = 0.001053 | – | 29.16
303.15 K, m1 = 0.001579 | – | 28.81
308.15 K, m1 = 4.604e-06 | – | 52.01
308.15 K, m1 = 7.893e-06 | – | 48.13
308.15 K, m1 = 1.052e-05 | – | 46
308.15 K, m1 = 1.579e-05 | – | 43.23
308.15 K, m1 = 2.631e-05 | – | 39.78
308.15 K, m1 = 5.263e-05 | – | 35.06
308.15 K, m1 = 7.37e-05 | 0.000445 | –
308.15 K, m1 = 8.04e-05 | 0.000472 | –
308.15 K, m1 = 8.72e-05 | 0.0005 | –
308.15 K, m1 = 9.4e-05 | 0.000528 | –
308.15 K, m1 = 0.0001007 | 0.000556 | –
308.15 K, m1 = 0.0001075 | 0.000583 | –
308.15 K, m1 = 0.0001143 | 0.000611 | –
308.15 K, m1 = 0.000121 | 0.00064 | 29.71
308.15 K, m1 = 0.00013 | 0.000659 | –
308.15 K, m1 = 0.0001389 | 0.000679 | –
308.15 K, m1 = 0.0001479 | 0.000699 | –
308.15 K, m1 = 0.0001568 | 0.000719 | –
308.15 K, m1 = 0.0001579 | – | 29.44
308.15 K, m1 = 0.0001658 | 0.000739 | –
308.15 K, m1 = 0.0001747 | 0.000759 | –
308.15 K, m1 = 0.0001837 | 0.000778 | –
308.15 K, m1 = 0.0001926 | 0.000798 | –
308.15 K, m1 = 0.0002015 | 0.000818 | –
308.15 K, m1 = 0.0002105 | 0.000839 | 29.16
308.15 K, m1 = 0.0002194 | 0.000858 | –
308.15 K, m1 = 0.0002284 | 0.000878 | –
308.15 K, m1 = 0.0002373 | 0.000898 | –
308.15 K, m1 = 0.0002463 | 0.000917 | –
308.15 K, m1 = 0.0002552 | 0.000937 | –
308.15 K, m1 = 0.0002631 | – | 29.02
308.15 K, m1 = 0.0002642 | 0.000957 | –
308.15 K, m1 = 0.0002731 | 0.000977 | –
308.15 K, m1 = 0.0002821 | 0.000997 | –
308.15 K, m1 = 0.000291 | 0.00102 | –
308.15 K, m1 = 0.0005262 | – | 28.71
308.15 K, m1 = 0.001053 | – | 28.26
308.15 K, m1 = 0.001579 | – | 28.07

Source: the NIST ThermoML archive (doi:10.1021/acs.jced.7b00347)
